# Values of other authors, collected in patent publication US11744878B2 (priority 2020, dated 2023).
# Where no end group is shown, it is not given here.
# Experiments:
# [1] = test system: COVID-19; details: most critically ill patients with COVID-19; cited from earlier work
# [2] = test system: SARS coronavirus; details: cited from earlier work
# [3] = test system: pancreas; details: cited from earlier work
# [4] = in vivo; cited from earlier work
compound,measurement,setting,value
"CC[C@H](C)[C@H](NC(=O)[C@H](CO)NC(=O)[C@H](CC(N)=O)NC(=O)[C@H](CC(C)C)NC(=O)[C@H](Cc1ccc(O)cc1)NC(=O)[C@H](CCCCN)NC(=O)[C@H](CCCCN)NC(=O)[C@@H](NC(=O)[C@H](C)NC(=O)[C@H](CCSC)NC(=O)[C@H](CCC(N)=O)NC(=O)[C@H](CCCCN)NC(=O)[C@H](CCCNC(=N)N)NC(=O)[C@H](CC(C)C)NC(=O)[C@H](CCCNC(=N)N)NC(=O)[C@@H](NC(=O)[C@H](Cc1ccc(O)cc1)NC(=O)[C@H](CC(N)=O)NC(=O)[C@H](CC(=O)O)NC(=O)[C@@H](NC(=O)[C@H](Cc1ccccc1)NC(=O)[C@@H](NC(=O)[C@H](C)NC(=O)[C@H](CC(=O)O)NC(=O)[C@H](CO)NC(=O)[C@@H](N)Cc1c[nH]cn1)C(C)C)[C@@H](C)O)[C@@H](C)O)C(C)C)C(=O)N[C@@H](CC(C)C)C(=O)N[C@@H](CC(N)=O)C(N)=O [RLF-100, aviptadil]",recovery from respiratory failure,[1],rapid recovery from respiratory failure
same,replication of the SARS coronavirus,[2],blocked replication
"secretin (HSDGTFTSELSRLRDSARLQRLLQGLV; not fully specified (C-terminus); ends and bridges not checked; UniProt P63298 33-59, looked up)",pancreatic duct diameter,[3]; in vivo,increases the pancreatic duct diameter
same,sphincter of Oddi,[3]; in vivo,causes sphincter of Oddi relaxation
same,volume and bicarbonate content of pancreatic juice,[3]; primary action,increase the volume and bicarbonate content
same,crossing of the blood-brain barrier,[4],rapidly crosses the blood-brain barrier
same,distribution in the body,[4],highly and rapidly distributed
"synthetic porcine secretin: new synthetic porcine secretin, manufactured by ChiRhoClin, Inc. (HSDGTFTSELSRLRDSARLQRLLQGLV; not fully specified (C-terminus); ends and bridges not checked; UniProt P63298 33-59, looked up)",effectiveness as a pancreatic secretagogue,[3]; compared with secretin extracted from porcine duodenum,equally effective
